Measurements from patent US4220587A, “Amino acid derivatives of 6-(2-amino-2-arylacetamido)penicillanic acids” (Mitsubishi Chemical Industries, Limited, priority 1975, dated 1980).
In brackets after ≈: the same amount, converted by molar mass. Like-named read-outs stand apart in the source and are kept apart here.

Experiments:
Type in all cases: cell-based
[1] = tested on: E. coli (NIHJ); experiment: MIC, agar dilution, E. coli; settings: Escherichia coli, 20 h, read-out: Minimum Inhibitory Concentration (MIC)
Method: (§1) The compounds of this invention were tested for antibacterial activity according to the following procedure. Nutrient broth and nutrient agar were prepared according to the conventional procedure. […] was used as a vehicle. The stock solution was prepared at 100 μg/ml of the test material in the vehicle. Two-fold dilutions were made with the vehicle and then the diluted stock solution was added to a petri dish and solidified by chilling. Test organisms were grown in the nutrient broth for 20 hours at 37° C. The hardened surface was inoculated with a loopful of the test organism solution containing 1×10^6 cells per milliliter and incubated for 20 hours at 37° C. At the end of this period, growth of the organism was observed. […] The following Table 1 summarizes the activity of representative compounds as active antibacterial agents, and compares them with the prior art compounds and the reference drug Sulbenicillin.

[2] = tested on: Proteus morgani (IFO 3848); experiment: MIC, agar dilution, Proteus morgani; settings: Morganella morganii, IFO3848, 20 h, read-out: Minimum Inhibitory Concentration (MIC)
Method: as §1

[3] = tested on: Proteus vulgaris (IFO 3045); experiment: MIC, agar dilution, Proteus vulgaris; settings: Proteus vulgaris, IFO3045, 20 h, read-out: Minimum Inhibitory Concentration (MIC)
Method: as §1

[4] = tested on: Proteus mirabilis (IFO 3849); experiment: MIC, agar dilution, Proteus mirabilis; settings: Proteus mirabilis, IFO3849, 20 h, read-out: Minimum Inhibitory Concentration (MIC)
Method: as §1

[5] = tested on: Staph. aureus (FDA 209P); experiment: MIC, agar dilution, Staph. aureus; settings: Staphylococcus aureus, FDA209P, 20 h, read-out: Minimum Inhibitory Concentration (MIC)
Method: as §1

[6] = tested on: Pseudomonas aeruginosa (ATCC 15692); experiment: MIC, agar dilution, Pseudomonas aeruginosa ATCC 15692; settings: read-out: Minimum Inhibitory Concentration (MIC)
Method: as §1

Compound	MIC [1] [µg/mL]	MIC [2] [µg/mL]	MIC [3] [µg/mL]	MIC [4] [µg/mL]	MIC [5] [µg/mL]	MIC ([6]; ATCC15692, P. aeruginosa ATCC 15692, nutrient agar, 20 hours at 37° C.) [µg/mL]	MIC ([6]; ATCC15692, 20 h) [µg/mL]
CC1(C)S[C@@H]2[C@H](NC(=O)[C@H](NC(=O)[C@@H]3CCCN3)c3ccc(O)cc3)C(=O)N2[C@H]1C(=O)O [Compound 4]	25 (≈ 54.1 µM)	9 (≈ 19.5 µM)	12.5 (≈ 27 µM)	9 (≈ 19.5 µM)	1.25 (≈ 2.7 µM)	50 (≈ 108 µM)	
CC1(C)S[C@@H]2[C@H](NC(=O)[C@H](NC(=O)[C@H]3CCCN3)c3ccc(O)cc3)C(=O)N2[C@H]1C(=O)O [Compound 3, 6-[D-2-(D-prolylamino)-2-(4-hydroxyphenyl)acetamido]penicillanic acid monohydrate]	6.2	3.1	6.2	2.2	0.9		6.2
